Here are results for four compounds from PMC2041813, “Perturbation of the Dimer Interface of Triosephosphate Isomerase and its Effect on Trypanosoma cruzi” (PLoS Neglected Tropical Diseases, 2007).

One data set deals with T1, TIM of T. cruzi (TcTIM) (Trypanosoma cruzi, UniProt P52270).
T1 construct: made in house; host or cells: Escherichia coli
As to the kind of experiment: Inhibition of activity of recombinant wild type TcTIM after 2 h incubation. The class given is biochemical. The procedure: (§1) TcTIM [19] and TIMs from T. brucei, L. mexicana, and Homo sapiens were expressed in Escherichia coli and purified as described in the indicated references. After purification, the enzymes dissolved in 100 mM triethanolamine, 10 mM EDTA and 1 mM dithiothreitol (pH 8) were precipitated with ammonium sulfate (75% saturation) and stored at 4°C. Before use, the enzymes were extensively dialyzed against 100 mM triethanolamine/10 mM EDTA (pH 7.4). Protein was determined from their absorbance at 280 nm. The ε M^−1 cm^−1 was 36440 for TcTIM, and 33460 for TbTIM and LmTIM.
(§2) In all the experiments, a solution of DTDA in dimethylsulfoxide (DMSO) was used. The final DMSO concentration in all experiments was 10% (v/v).
(§3) The indicated TIMs were incubated at pH 7.4 at a concentration of 5 µg per ml of 100 mM triethanolamine, 10 mM EDTA, 10% dimethyl sulfoxide (v/v), and DTDA at the concentrations indicated in the Results section for 2 hours at 36°C. At this time, an aliquot was withdrawn for assay of activity.
(§4) Activity was determined in the direction of glyceraldehyde 3-phosphate to dihydroxyacetone phosphate. The decrease in absorbance at 340 nm was followed in a Hewlett Packard spectrophotometer at 25°C. The reaction mixture (1 ml) contained 100 mM triethanolamine, 10 mM EDTA, 0.2 mM NADH, 1 mM glyceraldehyde 3-phosphate, and 0.9 units α-glycerolphosphate dehydrogenase (pH 7.4). The reaction was started by the addition of TIM, usually 5 ng. The average specific activity of the various preparations of TcTIM used in this work was 2900±200 µmol/min/mg.

Another data set concerns rats. On the set-up: method as in PMID 4078223. To be noted: cited from earlier work.
Another data set concerns the target T2, LmTIM (Leishmania mexicana, UniProt P48499).
T2 construct: made in house; host or cells: Escherichia coli
The data set is described as follows: Inhibition of activity of LmTIM after 2 h incubation. The class given is biochemical. The procedure: as §1, §2, §3, §4

In data set [1] the target is T3, TIM from H. sapiens (HTIM) (Homo sapiens, UniProt P60174).
T3 construct: made in house; host or cells: Escherichia coli
As to the kind of experiment: Inhibition of activity of human TIM after 2 h incubation. The data set is classed as biochemical. The procedure: as §1, §2, §3, §4

For another data set, the target named is T4, TcTIM C15A (Trypanosoma cruzi, UniProt P52270, C15A).
T4 construct: made in house
As to the kind of experiment: Inhibition of activity of TcTIM C15A mutant. The data set is classed as biochemical. To be noted: 2 h, 36°C, 10% DMSO, read-out: IC50, concentration of DTDA that induces 50% inhibition. As to the method:
as §2, §3, §4

The target of the next data set is TbTIM V118C (Trypanosoma brucei brucei, UniProt P04789, V117C). The data set is described as follows: Inhibition of activity of TbTIM V118C mutant. The class given is biochemical. The procedure: as §2, §3, §4
Data set [2] has as its system E. coli cells that had TcTIM instead of their own TIM. As to the kind of experiment: Growth of E. coli devoid of endogenous TIM transformed with TcTIM. The data set is classed as cell-based, Escherichia coli. The procedure: (§5) E. coli JM103 cells were used as control. E. coli devoid of their endogenous TIM termed VR101 [10] were kindly provided by Dr. Gloria Saab-Rincón; these cells have a kanamicin resistant cassette. […] The strains were grown at 37°C in solid Luria-Bertani medium that had been supplemented with 50 µg of kanamycin and 50 µg of ampicilin per ml. One colony was transferred to M9 medium that had 10% DMSO and 50 µg of each of the latter antibiotics per ml. Growth of the various cells was followed throughout time by measuring the absorbance of the culture at 600 nm.

A further data set concerns the target T5, TcTIM C118V (Trypanosoma cruzi, UniProt P52270, C118V).
T5 construct: made in house
The data set is described as follows: Inhibition of activity of TcTIM C118V mutant. The data set is classed as biochemical. To be noted: 2 h, 36°C, 10% DMSO, read-out: IC50, concentration of DTDA that induces 50% inhibition. The procedure: as §2, §3, §4

In another data set the target is T6, TcTIM C40A (Trypanosoma cruzi, UniProt P52270, C40A).
T6 construct: made in house
As to the kind of experiment: Inhibition of activity of TcTIM C40A mutant. The class given is biochemical. The note with it: half-maximal inhibition of the initial phase (biphasic response), read-out: IC50, concentration of DTDA that induces 50% inhibition. As to the method:
as §2, §3, §4

Another data set addresses T7, TcTIM C127A (Trypanosoma cruzi, UniProt P52270, C127A).
T7 construct: made in house
As to the kind of experiment: Inhibition of activity of TcTIM C127A mutant. To be noted: 2 h, 36°C, 10% DMSO, read-out: IC50, concentration of DTDA that induces 50% inhibition. The class given is biochemical. The procedure: as §2, §3, §4

The subject of the next data set is T. cruzi epimastigotes. As to the kind of experiment: Culture of T. cruzi epimastigotes, cell number up to 72 hours. The class given is cell-based, Trypanosoma cruzi. As to the method: Where indicated in the Results section, the media was supplemented with the indicated concentrations of DTDA. The number of cells was recorded at various times for as long as 72 hours.

In a further data set the test system is E. coli JM103 cells. As to the kind of experiment: Growth of intact E. coli (own TIM) in minimal media. The class given is cell-based, Escherichia coli. The note with it: 30 µM, M9 medium, 10% DMSO, absorbance at 600 nm. The procedure:
as §5

A further data set concerns hemoglobin. Details: method as in PMID 4078222. To be noted: cited from earlier work.
In another data set the target is T8, TbTIM (Trypanosoma brucei brucei, UniProt P04789).
T8 construct: made in house; host or cells: Escherichia coli
As to the kind of experiment: Inhibition of activity of TbTIM after 2 h incubation. The data set is classed as biochemical. As to the method:
as §1, §2, §3
Activity was determined in the direction of glyceraldehyde 3-phosphate to dihydroxyacetone phosphate. The decrease in absorbance at 340 nm was followed in a Hewlett Packard spectrophotometer at 25°C. The reaction mixture (1 ml) contained 100 mM triethanolamine, 10 mM EDTA, 0.2 mM NADH, 1 mM glyceraldehyde 3-phosphate, and 0.9 units α-glycerolphosphate dehydrogenase (pH 7.4). […]

Another data set relates to rodents. Details: method as in PMID 7265299. To be noted: cited from earlier work.
Setting [3] is: concentrations as high as 200 µM.

Like-named read-outs stand apart in the source and are kept apart here. Bounds are passed on as bounds.

T1 sequence (P52270 whole entry): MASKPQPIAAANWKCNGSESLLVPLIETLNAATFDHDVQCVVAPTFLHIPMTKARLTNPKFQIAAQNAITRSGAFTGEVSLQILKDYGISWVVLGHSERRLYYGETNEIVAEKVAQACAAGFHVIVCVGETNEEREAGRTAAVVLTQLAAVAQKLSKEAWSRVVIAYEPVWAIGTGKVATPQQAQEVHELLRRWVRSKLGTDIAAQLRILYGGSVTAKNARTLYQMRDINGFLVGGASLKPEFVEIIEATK
T3 sequence (P60174 whole entry): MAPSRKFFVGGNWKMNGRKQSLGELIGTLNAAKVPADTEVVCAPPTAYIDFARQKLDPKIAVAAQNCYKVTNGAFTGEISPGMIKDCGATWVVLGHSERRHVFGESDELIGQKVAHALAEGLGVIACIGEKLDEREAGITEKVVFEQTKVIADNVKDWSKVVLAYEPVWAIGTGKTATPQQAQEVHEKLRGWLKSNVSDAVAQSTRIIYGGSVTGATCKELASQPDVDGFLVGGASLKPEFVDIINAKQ
T2 sequence (P48499 whole entry): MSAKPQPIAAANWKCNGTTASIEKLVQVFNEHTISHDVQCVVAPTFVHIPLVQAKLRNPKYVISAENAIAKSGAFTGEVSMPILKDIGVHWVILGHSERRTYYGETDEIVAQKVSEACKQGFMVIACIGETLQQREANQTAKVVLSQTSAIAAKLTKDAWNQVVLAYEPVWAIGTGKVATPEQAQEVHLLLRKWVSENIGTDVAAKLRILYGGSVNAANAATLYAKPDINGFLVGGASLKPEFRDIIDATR
T8 sequence (P04789 whole entry): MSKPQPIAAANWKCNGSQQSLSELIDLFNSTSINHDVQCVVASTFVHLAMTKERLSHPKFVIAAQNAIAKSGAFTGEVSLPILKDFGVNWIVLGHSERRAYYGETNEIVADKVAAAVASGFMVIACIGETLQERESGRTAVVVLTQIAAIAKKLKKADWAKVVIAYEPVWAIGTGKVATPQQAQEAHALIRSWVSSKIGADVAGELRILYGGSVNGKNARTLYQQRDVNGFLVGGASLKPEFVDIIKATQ
TbTIM V118C, sequence (P04789 whole entry V117C): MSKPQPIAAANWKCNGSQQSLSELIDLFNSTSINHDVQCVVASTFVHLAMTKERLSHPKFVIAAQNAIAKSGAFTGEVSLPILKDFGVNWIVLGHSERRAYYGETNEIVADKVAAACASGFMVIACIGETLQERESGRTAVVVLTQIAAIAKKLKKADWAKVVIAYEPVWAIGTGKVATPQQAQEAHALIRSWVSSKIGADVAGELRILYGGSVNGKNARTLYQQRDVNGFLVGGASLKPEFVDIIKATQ
T7 sequence (P52270 whole entry C127A): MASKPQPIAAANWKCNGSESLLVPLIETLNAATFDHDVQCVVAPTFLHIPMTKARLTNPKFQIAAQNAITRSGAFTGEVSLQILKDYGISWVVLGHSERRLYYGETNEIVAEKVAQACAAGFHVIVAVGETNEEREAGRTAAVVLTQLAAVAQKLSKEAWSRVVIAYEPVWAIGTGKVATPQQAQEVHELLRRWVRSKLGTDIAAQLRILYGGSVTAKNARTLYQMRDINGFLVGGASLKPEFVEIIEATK
T6 sequence (P52270 whole entry C40A): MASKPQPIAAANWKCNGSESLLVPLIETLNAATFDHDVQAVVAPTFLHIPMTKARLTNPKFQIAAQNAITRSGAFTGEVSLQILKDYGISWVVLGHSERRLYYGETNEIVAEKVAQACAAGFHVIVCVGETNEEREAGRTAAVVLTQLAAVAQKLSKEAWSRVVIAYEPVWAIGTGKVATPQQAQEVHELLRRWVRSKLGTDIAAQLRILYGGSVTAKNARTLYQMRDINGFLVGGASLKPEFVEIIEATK
T4 sequence (P52270 whole entry C15A): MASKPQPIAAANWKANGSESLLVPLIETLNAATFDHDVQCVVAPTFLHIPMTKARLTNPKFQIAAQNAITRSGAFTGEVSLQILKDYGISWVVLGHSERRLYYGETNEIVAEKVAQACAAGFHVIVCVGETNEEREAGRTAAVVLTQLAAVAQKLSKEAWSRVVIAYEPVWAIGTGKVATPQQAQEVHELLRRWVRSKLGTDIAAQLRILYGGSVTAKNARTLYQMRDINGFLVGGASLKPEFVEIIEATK
T5 sequence (P52270 whole entry C118V): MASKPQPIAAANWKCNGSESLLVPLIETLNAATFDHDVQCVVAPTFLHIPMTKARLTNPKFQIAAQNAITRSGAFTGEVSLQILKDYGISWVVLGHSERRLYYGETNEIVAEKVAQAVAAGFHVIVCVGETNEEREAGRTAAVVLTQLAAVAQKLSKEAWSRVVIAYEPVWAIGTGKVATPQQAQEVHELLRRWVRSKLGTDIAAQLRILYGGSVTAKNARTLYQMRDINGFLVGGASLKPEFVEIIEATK

For the compound `Nc1ccccc1SCSc1ccccc1N` [2,2′-(methylenebisthioaniline)], the IC50 at TIM of T. cruzi (TcTIM) (read-out: concentration required to inhibit the activity of TcTIM by 50%) was 50000 nM.
Take `Nc1ccc(SSc2ccc(N)cc2)cc1` [4,4′-diamino disulfide]: the “toxic effect on administration to rats” value in the data set with rats is reported as “hematological alterations”.
Regarding `Nc1ccccc1SSc1ccccc1N` [DTDA, 2,2′-dithiodianiline], the IC50 at TIM of T. cruzi (TcTIM) (2 h, 36°C, 10% DMSO, read-out: concentration that induced 50% inhibition of the activity of TcTIM) was 260 nM; at TIM of T. cruzi (TcTIM) (TcTIM wild, 5 µg/ml enzyme, 2 h, 36°C, 10% DMSO, read-out: IC50, concentration of DTDA that induces 50% inhibition) it was 258 ± 35 nM; at LmTIM (LmTIM, 2 h, 36°C, 10% DMSO, read-out: IC50, concentration of DTDA that induces 50% inhibition), > 200 µM; in data set [1] (2 h, 36°C, 10% DMSO, read-out: concentration for fifty percent inhibition of HTIM activity) it was 98 µM; on TcTIM C15A it was 346 ± 32 nM; against TbTIM V118C, > 200 µM. For the same compound, the IC50 at TcTIM C118V amounted to 208 ± 37 nM; at TcTIM C40A, 1530 ± 450 nM; at TcTIM C127A it was 57 ± 8 nM. In addition, the “effect on the activity of LmTIM” value on LmTIM (10 µM, 2 h, 36°C) is “did not affect”. Moreover, on LmTIM (setting [3]), the “sensitivity of LmTIM activity” value was “completely insensitive”. The “effect on the activity of HTIM” value in data set [1] (10 µM, 2 h, 36°C) is “did not affect”. For the same compound, the “selectivity for TcTIM in reference to HTIM” value in [1] (ratio of concentrations for 50% inhibition, HTIM vs TcTIM) is ~400 times. For the same compound, at TbTIM V118C (200 µM), the “sensitivity of TbTIM V118C mutant activity” value is listed as “insensitive”. Moreover, the “effect on growth of E. coli cells that relied on the function of TcTIM” value in data set [2] (30 µM, M9 medium, 10% DMSO, absorbance at 600 nm) is “effectively prevented”. Also, the “effect on the lag that precedes logarithmic growth of TcTIM transformed E. coli” value in data set [2] (concentrations as low as 4 µM) is listed as “important increase in the lag”. Further, in data set [2] (inferred from the effect on TcTIM transformed E. coli), the “permeability of biological membranes to the compound” value is recorded as “permeable”. For the same compound, the “effect on growth of T. cruzi epimastigotes” value in the data set on T. cruzi epimastigotes (4 µM, up to 72 hours) is “inhibition of growth”; with T. cruzi epimastigotes (4–8 µM), “significant inhibition of the growth”. In the data set on T. cruzi epimastigotes (10 µM and 15 µM), the “effect on survival of T. cruzi parasites in cell cultures” value was “causes death of parasites”. Also, the “effect on the number of T. cruzi epimastigotes in culture” value in the data set with T. cruzi epimastigotes (concentrations higher than 8 µM, up to 72 hours) is reported as “significant decrease in the number of cells”. In the data set with E. coli JM103 cells, the “effect on growth of E. coli cells that worked with their own TIM” value is reported as “had no effect”. In the data set with hemoglobin, the effect on hemoglobin result was “irreversible oxidation of hemoglobin”. In addition, the “effect on the activity of TbTIM” value on TbTIM (10 µM, 2 h, 36°C) was “did not affect”. For the same compound, the “sensitivity of TbTIM activity” value on TbTIM (setting [3]) is given as “completely insensitive”.
On to diaminodiphenyldisulfide, for which, in the data set on rodents, the “toxic effect on the kidney” value was “atrophy and hyperplasia in the kidney”; the “toxic effect on the liver” value is on record as “necrotic changes in the liver”.
